Laboratory results reported in publication PMC8533176, “1,5-Benzodiazepin-2(3H)-ones: In Vitro Evaluation as Antiparkinsonian Agents” (Antioxidants, 2021).
Where two headings read alike, the source gives them in different places.

Legend:
[1] = ABTS radical scavenging assay; type: biochemical; conditions: for IC50: 30-min incubation
Procedure: The mixture was stored in the dark at room temperature for 16 h. […] All the compounds tested were dissolved in EtOH. […] The degree of decolorization was calculated as the percentage reduction of absorbance. […] Trolox was used as a reference antioxidant.

[2] = Ferric reducing antioxidant power (FRAP) assay; type: biochemical; parameters: FRAP Assay Trolox Equivalents: unit not given here; conditions: for FRAP Assay Antioxidant Capacity (%) at 100 uM: compound at 100 uM; for FRAP Assay Antioxidant Capacity (%) at 200 uM: compound at 200 uM
Procedure: FRAP reagent was prepared by mixing 10 mL of 300 mM acetate buffer with 1 mL of 10 mM 2,4,6-tripyridyl-S-triazine (TPTZ) in HCl 40 mM and 1mL of FeCl3·6H2O 20 mM. […] Trolox was used as assay control.

[3] = Kinetic solubility by UV spectrometry; type: physicochemical; conditions: PBS 50 mM, aqueous buffer, kinetic from dmso stock
Procedure: A modified protocol was used from that described by Hoelke et al. for the determination of the kinetic solubility from DMSO compound solutions. A compound calibration curve (compound concentration vs UV absorption) was prepared for each compound with concentrations of 10, 20, 50, 100, and 200 µM. Each compound dilution was carried out by pipetting defined volumes of a 20 mM stock compound solution in DMSO into vials and adding PBS 50 mM to reach a final volume of 1 mL/well. The final amount of DMSO per well was 2%. For the lower compound concentrations, an additional volume of DMSO was added to each well to reach 2% DMSO. Then, 200 µL of each dilution was transferred to a new 96-well culture plate for the measurement of the UV-spectra. One well in each row was left without a compound as a blank, and its UV absorbance was used as an offset correction. The experiments were performed in duplicate.
In parallel, compound saturation solutions were reached and filtered from 20 mM compound stock in DMSO: 10 µL of a 20 mM stock solution was dispensed into 190 µL of PBS 10 mM. The solutions were mixed, shaken on a microplate shaker for two hours, and then 160 µL of each solution was filtered and transferred to a new well plate for UV absorption measurement.
Measurement of the UV-spectra was performed using a Varioskan microplate reader, and spectra were taken in the range of 270–600 nm. Spectral bandwidth was set to 5 nm, and the data pint interval was 10 nm. The experiments were carried out in triplicate.

SH-SY5Y cells [4] = test: Cytotoxicity, MTT assay, SH-SY5Y; type: cell-based; conditions: Homo sapiens, MTT, cytotoxicity, read-out: SH-SY5Y IC50
Procedure: (§1) All compounds tested were dissolved and eventually further diluted in dimethylsulfoxide (DMSO). After overnight incubation, the cells were treated with different compound concentrations (5, 10, 20, 50, 100, 150, 200 µM) in a final volume of 200 µL with four replicates each. […] Cell proliferation or viability was measured using the 3-(4,5-dimethylthiazol-2-yl)-2,5-diphenyl tetrazolium bromide (MTT) assay. The MTT assay was optimized taking into account the number of cells plated per well, to work in the linear part of the cell density vs. MTT absorbance calibration curve, which allows achieving a maximum absorbance in the range of 0.8–1.0 in each well at the end of the experiment. In addition to that, the number of cells seeded for each experiment was optimized in agreement with the time scale of the experiment.
(§2) After cell treatment, 20 µL of MTT (5 mg/mL) was added to each well, and the plate was incubated at 37 °C in the dark for 2 h. Supernatants were removed, and the formazan crystals were solubilized in DMSO (200 µL/well), under 10 min shaking at room temperature. The reduction of MTT was quantified by absorbance at 570 nm in a Varioskan microplate reader (Thermo Fisher Scientific, Vantaa, Finland). Effects of the test compounds on cell viability were calculated using cells treated with a vehicle as a control. For IC50 and LD50 calculations, the data were subjected to linear regression analysis, and the regression lines were plotted for the best fit. The IC50 (inhibition of cell viability) concentrations were calculated using the respective dose–response curves.

HepG2 cells = test: Cytotoxicity, MTT assay, HepG2; type: cell-based; conditions: Homo sapiens, HepG2; MTT, cytotoxicity; read-out: HepG2 IC50
Procedure: as §1, §2

SH-SY5Y cells [5] = test: Resazurin cell viability assay under H2O2; type: cell-based, human; conditions: 24-h incubation, resazurin
SH-SY5Y cells [6] = test: cells; type: cell-based, human; conditions: for EC50: MTT

For `O=C1CC(c2ccccc2)=Nc2c(F)c(F)c(F)c(F)c2N1` [Compound 3, 6,7,8,9-tetrafluoro-4-phenyl-1H-1,5-benzodiazepin-2(3H)-one], the IC50 [1] was over 1000 µM, the “FRAP Assay Trolox Equivalents” value [2] was 0.03 and the “FRAP Assay Antioxidant Capacity (%) at 100 uM” value [2] was 1.5%. For the same compound, the “FRAP Assay Antioxidant Capacity (%) at 200 uM” value [2] was 1.8%, the solubility [3] was under 100 µM and the IC50 (SH-SY5Y cells [4]) was over 250 µM. It also gave an IC50 (HepG2 cells) of over 250 µM and a melting point of 253.3 °C.
In the case of `OO` [Compound H2O2, hydrogen peroxide, reference compound], the “H2O2 lethal dose (LD50 / EC50), resazurin method” value (SH-SY5Y cells [5]) is reported as 268 µM and the “H2O2 lethal dose (LD50 / EC50)” value (SH-SY5Y cells [6]) is reported as 250 µM.
In the case of `C[n+]1ccc(-c2ccccc2)cc1` [MPP^+, 1-Methyl-4-phenylpyridinium], the EC50 (SH-SY5Y cells [6]; MPP+ 48 h, read-out: concentration that resulted in 50% cell viability) is reported as 700 µM.
With `CC1=Nc2c(F)c(F)c(F)c(F)c2NC(=O)C1` [Compound 1, 6,7,8,9-Tetrafluoro-4-methyl-1H-1,5-benzodiazepin-2(3H)-one] the IC50 [1] was 576 ± 40 µM, the “ABTS Assay TEAC50” value ([1]; Equivalent antioxidant capacity at Trolox 50 mM) was 0.33 and the “ABTS Assay TEAC100” value ([1]; Equivalent antioxidant capacity at Trolox 100 mM) was 0.16. For the same compound, the “FRAP Assay Trolox Equivalents” value [2] was 0.01, the “FRAP Assay Antioxidant Capacity (%) at 100 uM” value [2] was 0.5% and the “FRAP Assay Antioxidant Capacity (%) at 200 uM” value [2] was 0.5%. It also gave a solubility [3] of over 200 µM, an IC50 (SH-SY5Y cells [4]) of over 250 µM and an IC50 (HepG2 cells) of over 250 µM. For the same compound, the melting point was 155.2 °C.
`NCCc1cc(O)c(O)cc1O` [Compound 6-OHD, 6-hydroxydopamine] gave an EC50 (SH-SY5Y cells [6]; Homo sapiens, SH-SY5Y, 6-OHD 48 h, read-out: concentration at which the cell viability was reduced by 50%) of 250 µM.
